The text below walks through data of patent US9180106B2, “Sigma receptors ligands with anti-apoptotic and/or pro-apoptotic properties, over cellular mechanisms, exhibiting prototypical cytoprotective and also anti-cancer activity” (Anavex Life Sciences Corp., priority 2009, dated 2015).

Each structure is given as a SMILES string.

Data set [1] deals with T1, σ-1 receptors (Homo sapiens, UniProt Q99720). Description: affinity for σ-1 receptors. Type of data set: binding. Particulars: read-out: affinity for σ-1 receptors (pKi) (converted).
Data set [2] concerns the target σ-2 receptors (Homo sapiens, UniProt Q5BJF2). The data set can be described thus: affinity for σ-2 receptors. Type of data set: binding.
In data set [3] the test system is scopolamine and dizocilpine (MK-801) induced amnesia or amyloid peptide β25-35 (Aβ25-35). The data set can be described thus: anti-amnesic action in mice. Particulars: per os (po). Type of data set: in vivo. On the procedure: The above molecular profile is the basis for AE14 modulatory role over the G-protein coupled receptors (GPCRs) and its pharmacological properties: anti-amnesic action (antagonistic action against scopolamine and dizocilpine (MK-801) induced amnesia or amyloid peptide β25-35 (Aβ25-35), at low doses (from 0.03 mg/kg administered per os (po), in mice). This unique new profile of AE14: anti-apoptotic via agonistic sigma-1 regulation of the volume regulated chloride channels (VRCC), anti-oxidative stress via agonistic action on the sigma-1 receptors of the ER-mitochondrion.

In data set [4] the test system is ER stress. Description: protocols of acute or chronic ER and cellular stress, in vitro and in vivo. On the set-up: species or system mice.
Data set [5] concerns PTZ-induced tonic crises. The data set can be described thus: protection against pentylenetetrazole (PTZ) induced stress and tonic crises. Particulars: in vitro or in vivo, on mice.
In data set [6] the target is T1, σ-1 receptors. The data set can be described thus: agonistic/antagonistic action on σ-1 receptors.
The test system of data set [7] is cancer cells: colorectal, prostate, ovarian renal, pancreas, lung, gliomas, glioblastomas leukemia, lymphomas, melanomas, sarcomas and hepatoma.
The subject of data set [8] is primary (drug resistant) melanoma. Description: in vivo anticancer activity in mice xenografts. The source says:
All molecules present strong chemical affinities (sub-nanomolar to micromolar) for α-1 receptors with antagonistic action (except AdAE and AdPhAE which are weak agonists) and with nanomolar to micromolar affinities for α-2 receptors and agonistic action. Therefore, all molecules above and their derivatives are pro-apoptotic and only at very low concentrations or doses are anti-apoptotic. All molecules above are toxic to the cancer cells: colorectal, prostate, ovarian renal, pancreas, lung, gliomas, glioblastomas leukemia, lymphomas, melanomas, sarcomas and hepatoma, with antiproliferative and cytotoxic concentrations usually lower than 10 microMolar (μM), for more than 50 of the above derivatives. […] The pharmacological profile of the above molecules is totally prototypical and original giving the possibility of a therapeutic synergy with the clinically used anticancer drugs with simultaneous antagonism and protection against the most grave secondary effects i.e., neuropathic pain and disability induced by the clinically used anticancer drugs.

The test system is the same in data set [9]. Description: in vitro cytotoxicity, primary melanoma. Type of data set: cell-based.
Data set [10] deals with leukaemia. The data set can be described thus: in vitro cytotoxicity, leukaemia. Type of data set: cell-based.
For data set [11], the system named is lung. Description: in vitro cytotoxicity, lung. Type of data set: cell-based.
Data set [12] deals with breast. Description: in vitro cytotoxicity, breast. Type of data set: cell-based.
In data set [13] the test system is colon. Description: in vitro cytotoxicity, colon. Type of data set: cell-based.
The subject of data set [14] is glioblastomas. The data set can be described thus: in vitro cytotoxicity, glioblastomas. Type of data set: cell-based.

Sequence of σ-2 receptors (Q5BJF2 whole entry): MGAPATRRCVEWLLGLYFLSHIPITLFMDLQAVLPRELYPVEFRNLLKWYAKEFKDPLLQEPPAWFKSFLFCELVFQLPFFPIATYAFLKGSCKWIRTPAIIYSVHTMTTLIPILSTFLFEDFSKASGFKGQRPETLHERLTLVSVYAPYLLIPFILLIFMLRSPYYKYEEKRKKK
T1 sequence (Q99720 whole entry): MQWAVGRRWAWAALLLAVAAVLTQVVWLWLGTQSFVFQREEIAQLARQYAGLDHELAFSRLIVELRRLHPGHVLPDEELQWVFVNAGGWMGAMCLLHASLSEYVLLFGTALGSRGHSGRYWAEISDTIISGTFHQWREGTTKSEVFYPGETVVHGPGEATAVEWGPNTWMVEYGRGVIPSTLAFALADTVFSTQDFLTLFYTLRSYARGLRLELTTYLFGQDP

For the compound `CN(C)CC1COC(c2ccccc2)(c2ccccc2)C1` (centres unmarked) [AE14, Tetrahydro-N,N,-Dimethyl-5,5-Diphenyl-3-Furanomethanamine], the figures for the Ki in data set [1] and in [2] were 25.1 nM and greater than 10000 nM, respectively. The “affinity for σ-2 receptors, times lower than for σ-1” value in data set [2] (σ-2 versus σ-1) was “more than 100 times”. The “anti-amnesic action, active doses” value in [3] is on record as no less than 0.03 mg/kg. Moreover, the “effect on ER stress” value in [4] (acute or chronic cellular stress, oligopeptides or streptozocin, in vitro and in vivo on mice) is “antagonized the ER stress”.

For the compound `CNCC1CCOC1(c1ccccc1)c1ccccc1` (centres unmarked) [AE37 Met, Tetrahydro-N-Methyl-2,2-Diphenyl-3-Furanomethanamine], the “activity relative to AE37” value in data set [4] (for the properties mentioned for AE37) was “slightly more active than AE37”. In addition, the “protection against ER-mitochondrion anoxia and oxidative stress caused by PTZ” value in data set [5] is reported as “exceptional protection”.

In the case of `CN(C)CC1CCOC1(c1ccccc1)c1ccccc1` (centres unmarked) [AE37, Tetrahydro-N,N-Dtiviethyl-2,2-Dinienyl-3-Furanomethanamine], the Ki in data set [1] was 501 nM. Moreover, in data set [2], the “affinity for σ-2 receptors” value is recorded as “no affinity”. For the same compound, in data set [6], the “action on σ-1 receptors” value is given as “selective σ-1 agonist”. Besides, in [4] (chronic ER and cellular stress, in vitro and in vivo on mice), the anti-apoptotic properties entry is recorded as “high anti-apoptotic properties”.

On to `COc1ccc(CCN2CCC(Nc3nc4ccccc4n3Cc3ccc(F)cc3)CC2)cc1` [AST, Astemizole], for which the “cytotoxicity, in vitro” value in data set [7] lay within 3.0 to 5.0 µM.

Turning to `CN(C)CC1COC2(C1)C1CC3CC(C1)CC2C3` (centres unmarked) [AdAE, (DIHYDRO-4-(DIMETHYLAMINOMETHYL)SPIRO {FURANE-2(3H),2′-TRICYCLO[3.3.1.13,7]DECANE}], in data set [6], the “action on σ-1 receptors” value was “weak agonists”.

For the compound `CN(C)CC1COC(c2ccccc2)(C23CC4CC(CC(C4)C2)C3)C1` (centres unmarked) [AdPhAE, 5-(TRICYCLO[3.3.1.13,7]DEC-1-YL)-TETRAHYDRO-N,N-DIMETHYL-5-PHENYL-3-FURANEMETHANAMINE], the “action on σ-1 receptors” value in data set [6] is “weak agonists”.

In the case of `CN(C)/N=N/c1[nH]cnc1C(N)=O` [Dacarbazine], in data set [8], the “in vivo anticancer activity” value is “inactive”.

For `CN(C)c1ccc2nc3ccc(=[N+](C)C)cc-3sc2c1` [MB, Methylene blue], the “cytotoxicity, in vitro” value in data set [9] was “lower than 1.0 μM”; in data set [10], “lower than 1.0 μM”; in data set [11] it was “lower than 1.0 μM”; in data set [12], roughly 2.0 µM; in data set [13], roughly 2.0 µM; in [14], roughly 2.0 µM. Moreover, in data set [8], the “in vivo anticancer activity” value is on record as “confirmed in vivo”.

For `CCN(CC)CCCC(C)Nc1c2ccc(Cl)cc2nc2ccc(OC)cc12` (centres unmarked) [QNC, Quinacrine], the “in vivo anticancer activity” value in data set [8] was “outstanding in vivo activity”.
